Patent publication US20250199015A1, “CYCLIN-DEPENDENT KINASE 2 INHIBITORS FOR MEDICAL TREATMENT” (INCYCLIX BIO, LLC, priority 2022, published 2025)
“And” between values parts separate entries of the source, which are not always exact repeats. Identical values can stand only once.

Legend:
[1] = test system: BT474 human breast carcinoma cells; assay: Crystal violet colony assay; format: cell-based
Procedure: The T47D human breast carcinoma cell line was grown in RPMI-1640/1× Glutamax/1× Insulin/10% fetal bovine serum and was plated at 10,000 cells/well in Corning 6 well tissue culture treated plates. The BT474 human breast carcinoma cell line was grown in DMEM/1× Glutamax/1× Insulin/10% fetal bovine serum and was plated at 25,000 cells/well in Corning 6 well tissue culture treated plates. Cells were incubated at 37° C. for 24 hours prior to addition of treatment. […] Plates were collected at week 2 and 3, at week 3, 2 plates with only CDK4/6i were switched to combination treatment. The remaining plates were collected at weeks 5 and 8. Collection was performed by washing wells with PBS before incubating 5 minutes with 0.1% crystal violet/20% methanol. Dye was removed and wells washed 4 times with PBS before being scanned at 1200 dpi. Image J was used to count the % area and colony size for each well. Graph pad was used for analysis.

[2] = test system: Palbo-R MCF7 PDRC15-1 cells; assay: Cell cycle by EdU flow cytometry; format: cell-based, human; conditions: with 1 μM palbociclib, 24 hours
Procedure: (§1) The Palbo-sensitive (Palbo-S) MCF7 parental and Palbo-R daughter cells (MCF7 PDRC15-1) human […] carcinoma cell line was grown in MEM/1× Glutamax/1× Insulin/10% fetal bovine serum with the PDR cells grown in the presence of 1 μM palbociclib. Cells were plated at 100,000 cells/well in Corning 6 cm tissue culture treated plates. […] Cells were treated for 24 hours and 10 μM EdU was added 1 hour prior to collection. Cells were collected and fixed in 1% paraformaldehyde. Cells were incubated with Alexa488 azide dye as described by Thermo Scientific. Cells were then incubated with FarRed dye and RNase. Cells were analyzed on a BD Celesta and data compiled using FloJo and GraphPad. […] The resistant Palbo-R MCF7 cells have a much lower percent of cells in S phase in general.

[3] = test system: Palbo-S MCF7 parental cells; assay: Cell cycle by EdU flow cytometry; format: cell-based, human; conditions: 10 nM to 10 μM, 24 hours
Procedure: as §1

BCRP = biological target: T1, BCRP (Homo sapiens, UniProt Q9UNQ0); assay: ABC transporter inhibition, inside-out membrane vesicles; format: in vitro ADME
T1 construct: expressed in transfected cells; inside-out membrane vesicles
T1 sequence (Q9UNQ0 whole entry): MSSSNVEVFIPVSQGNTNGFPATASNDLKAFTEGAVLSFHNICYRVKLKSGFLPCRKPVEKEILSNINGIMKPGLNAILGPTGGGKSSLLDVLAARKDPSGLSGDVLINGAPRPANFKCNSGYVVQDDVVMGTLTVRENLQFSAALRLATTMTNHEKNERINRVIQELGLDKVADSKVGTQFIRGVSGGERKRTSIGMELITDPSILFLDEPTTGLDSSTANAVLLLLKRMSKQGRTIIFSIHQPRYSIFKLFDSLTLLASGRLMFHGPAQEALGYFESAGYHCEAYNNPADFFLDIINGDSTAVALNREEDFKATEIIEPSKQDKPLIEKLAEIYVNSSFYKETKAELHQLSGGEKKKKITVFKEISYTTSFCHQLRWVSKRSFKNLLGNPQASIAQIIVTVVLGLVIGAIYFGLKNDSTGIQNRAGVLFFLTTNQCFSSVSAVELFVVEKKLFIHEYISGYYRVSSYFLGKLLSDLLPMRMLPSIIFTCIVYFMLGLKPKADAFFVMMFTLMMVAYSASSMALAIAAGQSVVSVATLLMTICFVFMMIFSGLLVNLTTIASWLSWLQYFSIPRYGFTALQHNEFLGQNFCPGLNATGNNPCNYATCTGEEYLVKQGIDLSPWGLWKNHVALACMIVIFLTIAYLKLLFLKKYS
Procedure: The reaction was initiated with the addition of ATP or AMP to the solution and following the incubation time, the reaction was stopped by the addition of 200 μL of ice-cold washing buffer and immediate filtration via glass fiber filters mounted to a 96-well plate (filter plate). The filters were washed, dried, and the amount of substrate inside the filtered vesicles was determined by liquid scintillation counting. E3S (1 μM; Sigma-Aldrich E0251) for BCRP was used as positive control substrates.

[4] = test system: pRb (S780) in therapy-resistant T47D/MCF7M cells; assay: Western blot Rb phosphorylation in therapy-resistant cells; format: cell-based, human; conditions: combined with a CDK4/6i and/or estrogen therapy, 7 days
Procedure: Retinoblastoma (Rb) phosphorylation status analysis was then conducted in therapy-resistant cells by Western blotting. The T47D human breast carcinoma cell line was grown in RPMI-1640/1× Glutamax/1× Insulin/10% fetal bovine serum and was plated in Corning 6 well tissue culture treated plates. Cells were incubated at 37° C. for 24 hours prior to addition of treatment. Treatments were either DMSO, Compound I, or abemaciclib alone, or Compound I in combination with abemaciclib. Cells were treated for 7 days. All Abemaciclib treated cells received 500 nM Abemaciclib. […] Supernatant was removed, pellet resuspended in 250 μL of 1× Cell Lysis buffer (CST #9803, 1 tablet of PhosSTOP, 1 tablet of complete Protease Inhibitor Cocktail in 5 mL) then incubated on ice for 20 mins. Lysate was centrifuged at 21,000×g for 20 min at 4° C. and supernatant transferred to clean tubes. A DC assay was performed to determine the protein concentration of each lysate. 20 μg of protein was mixed with Laemelli buffer (+5% BME) before being run on homemade 15% gels. For samples normalized to cell number (p-RB and total RB), cells were washed in ice-cold PBS. Cells were counted and 500,000 cells were aliquoted into clean tubes. Cells were centrifuged at 500×g for 4 mins at 4° C. and supernatant discarded. Cell pellets were directly lysed in 100 μL of Laemmli buffer (+5% BME) and boiled at 95° C. for 12 min. […]

human OATP1B1 = biological target: T2, human OATP1B1 (Homo sapiens, UniProt Q9Y6L6); assay: SLC transporter inhibition in HEK293 cells; format: in vitro ADME
T2 construct: expressed in transfected cells; host or cells: HEK293
T2 sequence (Q9Y6L6 whole entry): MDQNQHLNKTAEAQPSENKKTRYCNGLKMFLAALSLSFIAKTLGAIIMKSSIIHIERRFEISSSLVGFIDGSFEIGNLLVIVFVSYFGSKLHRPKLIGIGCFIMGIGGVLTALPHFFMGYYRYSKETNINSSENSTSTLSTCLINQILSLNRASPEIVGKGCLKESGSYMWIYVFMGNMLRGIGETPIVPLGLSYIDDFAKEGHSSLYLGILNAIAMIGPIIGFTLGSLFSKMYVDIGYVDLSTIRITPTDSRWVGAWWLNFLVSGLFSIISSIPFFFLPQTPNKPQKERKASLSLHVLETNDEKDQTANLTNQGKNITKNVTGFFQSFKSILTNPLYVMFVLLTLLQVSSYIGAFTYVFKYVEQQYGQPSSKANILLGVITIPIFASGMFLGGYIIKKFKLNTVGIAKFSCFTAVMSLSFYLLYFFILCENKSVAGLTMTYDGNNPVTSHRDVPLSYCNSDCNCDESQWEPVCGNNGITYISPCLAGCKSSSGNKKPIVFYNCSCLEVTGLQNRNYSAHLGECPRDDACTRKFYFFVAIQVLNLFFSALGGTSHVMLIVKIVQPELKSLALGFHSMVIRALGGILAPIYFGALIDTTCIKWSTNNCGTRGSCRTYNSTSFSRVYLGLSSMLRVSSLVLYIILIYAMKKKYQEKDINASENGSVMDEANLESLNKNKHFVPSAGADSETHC

CDK2/Cyclin E (CDK2/E) = CDK2/Cyclin E (CDK2/E) (Homo sapiens, UniProt P24941); assay: Caliper microfluidic kinase assay (Nanosyn); format: biochemical
Procedure: Kinase phosphorylation assays were performed using a caliper technology microfluidics platform (Caliper Assay Platform). With this system, the target enzyme is incubated with fluorescently labeled substrate and test compounds in a standardized reaction mixture in 384 well plates. Upon termination of the reaction, samples are introduced onto microfluidic chips. The samples migrate through channels in the chips and product and substrate are separated based on the difference in their charge and mass (electrophoretic mobility shift). Enzyme activity is measured by direct comparison of the fluorescence in the product and substrate peaks.
Protein kinase activity was measured against multiple CDKs and their binding partners: CDK1/Cyclin B (CDK1/B), CDK2/Cyclin A (CDK2/A), and CDK2/Cyclin E (CDK2/E), CDK3/Cyclin E (CDK3/E), CDK4/Cyclin D1 (CDK4/D1), CDK6/Cyclin D3 (CDK6/D3), CDK5/p35 (CDK5/p35), CDK7/Cyclin H (CDK7/H), CDK9/Cyclin T1 (CDK9/T). Test compounds were diluted in 100% DMSO using 3-fold dilution steps. […] Compounds were tested in a single well for each dilution, and the final concentration of DMSO in all assays was kept at 1%.

MKN1 cells = assay: Cell cycle by EdU flow cytometry with washout; format: cell-based, human; conditions: 300 nM, 24 hr post-initial treatment (0 hr after washout)
Procedure: The MKN1 human stomach carcinoma cell line was grown in RPMI-1640/1× Glutamax/10% heat inactivated fetal bovine serum and was plated at 300,000 cells/well in 6 cm tissue culture treated plates. […] At 24 hours, the remaining plates were rinsed with media before un-treated media was added back. Cells were collected at the indicated times, with 10 μM EdU added for the last hour (FIG. 21A). Cells were collected and fixed in 1% paraformaldehyde. Cells were incubated with Pacific blue azide dye as described by Thermo Scientific. Cells were then incubated with FarRed dye and RNase. Cells were analyzed on a BD Celesta and data compiled using FloJo and GraphPad. Approximately 95% of MKN1 cells were arrested at G1 at 24 hr post-initial treatment (0 hr after washout) (FIG. 21B). […] At 48 hr post-washout, MKN1 cells were synchronized.

NS(=O)(=O)c1ccc(Nc2ncc3cc4n(c3n2)C2(CCCCC2)C(=O)NN4)cc1 [Compound I]
growth with both Compound I and a CDK4/6i ([1]; 300 nM each, 8 weeks): no noticeable growth after 8 weeks
time to CDK4/6i resistance ([1]; 300 nM with palbociclib or abemaciclib, up to 8 weeks): prolonged the time to CDK4/6i resistance
cell cycle arrest [2]: arrested during the G1 phase at 30, 100, 300 nM
cell cycle sensitivity [3]: not sensitive to Compound I
IC50 (BCRP; BCRP, inside-out membrane vesicles): 422 nM
IC50 (BCRP; human, inside-out membrane vesicles from cells overexpressing BCRP, probe E3S (1 μM)): 422 nM
Rb phosphorylation in therapy-resistant cells [4]: prevents the phosphorylation
IC50 (human OATP1B1): 3810 nM
Maximum Percent inhibition (human OATP1B1; OATP1B1, HEK293 cells): 93%
IC50 (CDK2/Cyclin E (CDK2/E); 12-point dose-response, 1 μM to 0.0056 nM, read-out: IC50 against CDK2/E): 0.6 nM and 0.56 nM
inhibition compared with other CDK/cyclin combinations (CDK2/Cyclin E (CDK2/E); FIG. 1A panel): greatest inhibition of CDK2/E and CDK2/A
cells arrested at G1 (MKN1 cells): Approximately 95%
